These results are taken from the supplement of paper PMC7661543.

What all share (assay): relative cell number vs DMSO control (72 h) (% of DMSO); higher = less growth inhibition (more cells)
Settings in all cases: sgRNA knockout: sgNT

Assay [1] has as its system HCC-38. As to the method:
(§1)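 QMAP-Seq: a pool of 5 breast cancer cell lines (ZR-75-1, SKBR3, HCC-38, MDA-MB-231, BT-20), each carrying 12 doxycycline-inducible Cas9 sgRNA perturbations (11 knockouts plus non-targeting sgNT), was treated with compounds for 72 h at four 10-fold doses (10 nM-10 uM or 1 nM-1 uM range). Barcodes were amplified and sequenced, and cell number was interpolated from 293T spike-in standard curves. The result is expressed as % of the median of DMSO wells. Two biological replicates.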

Assay [2] concerns SKBR3. The protocol:
as §1

For assay [3], the system named is MDA-MB-231. As to the method:
as §1

For assay [4], the system named is BT-20. As to the method: as §1
Assay [5] has as its system ZR-75-1. As to the method: as §1

± gives the standard deviation of the averaged measurements.

Regarding `N.N.[Cl][Pt][Cl]` [Cisplatin], the relative cell number was found to be 114 ± 20 in assay [1] (10 nM); 79.6 ± 12 in assay [1] (100 nM); 115 ± 13 in assay [1] (1000 nM); 93.4 ± 8.6 in assay [1] (10000 nM); 97.5 ± 2.7 in assay [2] (10 nM); 84.6 ± 5.9 in assay [2] (100 nM). Besides, the relative cell number was 81.5 ± 8.8 in assay [2] (1000 nM); 110 ± 3.5 in assay [2] (10000 nM); 95 ± 3.3 in assay [3] (10 nM); 87.8 ± 8.9 in assay [3] (100 nM); 99.8 ± 51 in assay [3] (1000 nM); 116 ± 20 in assay [3] (10000 nM). Moreover, the relative cell number stood at 100 ± 7.4 in assay [4] (10 nM); 80.4 ± 4.7 in assay [4] (100 nM); 111 ± 5.1 in assay [4] (1000 nM); 89 ± 2.7 in assay [4] (10000 nM); 89.8 ± 18 in assay [5] (10 nM); 88.2 ± 45 in assay [5] (100 nM). The relative cell number in assay [5] (1000 nM) amounted to 89.7 ± 35; in assay [5] (10000 nM), 74.5 ± 27.

As to `Nc1nc(Cl)nc2c1ncn2[C@@H]1O[C@H](CO)[C@@H](O)[C@@H]1F` [Clofarabine], the relative cell number stood at 98.6 ± 18 in assay [1] (10 nM); 25.9 ± 0.79 in assay [1] (100 nM); 12.6 ± 1.4 in assay [1] (1000 nM); 12.4 ± 6.4 in assay [1] (10000 nM); 65.5 ± 37 in assay [2] (10 nM); 45.5 ± 1.9 in assay [2] (100 nM). In addition, the relative cell number in assay [2] (1000 nM) was determined as 10.2 ± 1.7; in assay [2] (10000 nM), 8.24 ± 1.4; in assay [3] (10 nM), 82.8 ± 26; in assay [3] (100 nM), 30 ± 7.7; in assay [3] (1000 nM), 12 ± 1.1; in assay [3] (10000 nM) it was 22.7 ± 0.75. Further, the relative cell number is 103 ± 44 in assay [4] (10 nM); 73.9 ± 4.4 in assay [4] (100 nM); 27 ± 2.8 in assay [4] (1000 nM); 26.5 ± 1.5 in assay [4] (10000 nM); 72.7 ± 31 in assay [5] (10 nM); 63.6 ± 9.1 in assay [5] (100 nM). Further, the relative cell number was found to be 22.1 ± 3.6 in assay [5] (1000 nM) and 25.4 ± 15 in assay [5] (10000 nM).

On to `C[C@@H](Oc1cc(-c2cnn(C3CCNCC3)c2)cnc1N)c1c(Cl)ccc(F)c1Cl` [Crizotinib], for which the relative cell number in assay [1] (10 nM) was determined as 91.2 ± 15; in assay [1] (100 nM), 85.708 ± 0.047; in assay [1] (1000 nM) it was 86.8 ± 2.8; in assay [1] (10000 nM) it was 25.9 ± 4.9; in assay [2] (10 nM) it was 92.7 ± 20; in assay [2] (100 nM) it was 98.4 ± 12. The relative cell number in assay [2] (1000 nM) was found to be 88.6 ± 8.4; in assay [2] (10000 nM), 37.4 ± 27; in assay [3] (10 nM), 89.5 ± 29; in assay [3] (100 nM) it was 88.8 ± 15; in assay [3] (1000 nM), 54 ± 14; in assay [3] (10000 nM) it was 8.63 ± 0.23. Also, the relative cell number was 83.9 ± 22 in assay [4] (10 nM); 100.3 ± 0.25 in assay [4] (100 nM); 75.5 ± 12 in assay [4] (1000 nM); 44.2 ± 4.7 in assay [4] (10000 nM); 75.6 ± 19 in assay [5] (10 nM); 116 ± 13 in assay [5] (100 nM). Also, the relative cell number in assay [5] (1000 nM) was determined as 34.1 ± 13; in assay [5] (10000 nM), 14.6 ± 0.35.

As for `COc1cc(/C=C/C(=O)CC(=O)/C=C/c2ccc(O)c(OC)c2)ccc1O` [Curcumin], the relative cell number in assay [1] (10 nM) worked out at 100 ± 14; in assay [1] (100 nM), 97.5 ± 7; in assay [1] (1000 nM), 95.5 ± 7.2; in assay [1] (10000 nM), 85.5 ± 21; in assay [2] (10 nM) it was 106 ± 29; in assay [2] (100 nM), 82.86 ± 0.028. The relative cell number in assay [2] (1000 nM) came to 111 ± 7.2; in assay [2] (10000 nM), 66.7 ± 0.98; in assay [3] (10 nM), 91.8 ± 29; in assay [3] (100 nM), 136 ± 59; in assay [3] (1000 nM), 88.6 ± 8.1; in assay [3] (10000 nM) it was 61.55 ± 0.48. In addition, the relative cell number in assay [4] (10 nM) came out at 116 ± 7.8; in assay [4] (100 nM) it was 107 ± 32; in assay [4] (1000 nM), 95.9 ± 6.5; in assay [4] (10000 nM), 95.3 ± 16; in assay [5] (10 nM) it was 73.8 ± 1.7; in assay [5] (100 nM), 84.5 ± 52. In addition, the relative cell number in assay [5] (1000 nM) stood at 112 ± 46; in assay [5] (10000 nM) it was 72.5 ± 0.98.

In the case of `O=P1(N(CCCl)CCCl)NCCCO1` (stereo not given) [Cyclophosphamide], the relative cell number is 89.7 ± 13 in assay [1] (10 nM); 86.8 ± 5.3 in assay [1] (100 nM); 93.6 ± 5.8 in assay [1] (1000 nM); 94.7 ± 8.6 in assay [1] (10000 nM); 88.4 ± 22 in assay [2] (10 nM); 86.2 ± 26 in assay [2] (100 nM). Moreover, the relative cell number stood at 102 ± 19 in assay [2] (1000 nM); 93.3 ± 7.1 in assay [2] (10000 nM); 96.1 ± 29 in assay [3] (10 nM); 134 ± 22 in assay [3] (100 nM); 74 ± 11 in assay [3] (1000 nM); 136 ± 10 in assay [3] (10000 nM). Moreover, the relative cell number in assay [4] (10 nM) came out at 81.2 ± 1.5; in assay [4] (100 nM), 114 ± 0.31; in assay [4] (1000 nM), 107 ± 5.6; in assay [4] (10000 nM) it was 114 ± 8.3; in assay [5] (10 nM), 83.2 ± 52; in assay [5] (100 nM) it was 111 ± 50. For the same compound, the results for the relative cell number in assay [5] (1000 nM) and in assay [5] (10000 nM) were 81.3 ± 37 and 89 ± 21, respectively.

In the case of `CC(C)(C)c1nc(-c2cccc(NS(=O)(=O)c3c(F)cccc3F)c2F)c(-c2ccnc(N)n2)s1` [Dabrafenib], the relative cell number turned out to be 141 ± 32 in assay [1] (10 nM); 96.9 ± 5.1 in assay [1] (100 nM); 93.8 ± 4.2 in assay [1] (1000 nM); 94.7 ± 7.9 in assay [1] (10000 nM); 133 ± 3.3 in assay [2] (10 nM); 121 ± 1.7 in assay [2] (100 nM). The relative cell number amounted to 96.5 ± 9.5 in assay [2] (1000 nM); 104 ± 14 in assay [2] (10000 nM); 106 ± 7.5 in assay [3] (10 nM); 137 ± 23 in assay [3] (100 nM); 91.8 ± 27 in assay [3] (1000 nM); 115 ± 10 in assay [3] (10000 nM). Also, the relative cell number in assay [4] (10 nM) was 134 ± 10; in assay [4] (100 nM) it was 116 ± 16; in assay [4] (1000 nM) it was 109 ± 12; in assay [4] (10000 nM), 112 ± 1.6; in assay [5] (10 nM) it was 129 ± 31; in assay [5] (100 nM), 128 ± 3.2. Further, the relative cell number in assay [5] (1000 nM) stood at 119 ± 46; in assay [5] (10000 nM), 76.8 ± 7.1.
